From the supplement of paper PMC10307832

What was measured:
Experiment in all cases: relative viability (nuclei count vs DMSO), 5 days (fraction); higher = more cells survive
AZ628 + Lapatinib = compound: CC1=C(C=C(C=C1)NC(=O)C2=CC(=CC=C2)C(C)(C)C#N)NC3=CC4=C(C=C3)N=CN(C4=O)C [AZ628] + CS(=O)(=O)CCNCc1ccc(-c2ccc3ncnc(Nc4ccc(OCc5cccc(F)c5)c(Cl)c4)c3c2)o1 [Lapatinib] (partner 2 µM)
Procedure, shortened: (§1)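 One day after seeding in 1536-well plates, lung cancer cell lines were dosed by pin tool. Dosing was either single-drug or a fixed anchor-drug dose plus five library-drug doses (not always all listed) in √10 steps. After 5 days, nuclei were stained in one fix-and-stain step and counted on 4× images, and relative viability is the nuclei count of treated wells over that of vehicle wells, given as the median of duplicate plates.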

QS11 + Olaparib = compound: C1CC2=C(C1)C=C(C=C2)OC3=NC(=C4C(=N3)N(C=N4)CC5=CC=C(C=C5)C6=CC=CC=C6)N[C@@H](CC7=CC=CC=C7)CO [QS11] + O=C(c1cc(Cc2n[nH]c(=O)c3ccccc23)ccc1F)N1CCN(C(=O)C2CC2)CC1 [Olaparib] (partner 8 µM)
Procedure, shortened: as §1

AZ628 + Trametinib = compound: CC1=C(C=C(C=C1)NC(=O)C2=CC(=CC=C2)C(C)(C)C#N)NC3=CC4=C(C=C3)N=CN(C4=O)C [AZ628] + CC(=O)Nc1cccc(-n2c(=O)n(C3CC3)c(=O)c3c(Nc4ccc(I)cc4F)n(C)c(=O)c(C)c32)c1 [Trametinib] (partner 0.02 µM)
Procedure, shortened: as §1

QS11 + Alpelisib = compound: C1CC2=C(C1)C=C(C=C2)OC3=NC(=C4C(=N3)N(C=N4)CC5=CC=C(C=C5)C6=CC=CC=C6)N[C@@H](CC7=CC=CC=C7)CO [QS11] + Cc1nc(NC(=O)N2CCC[C@H]2C(N)=O)sc1-c1ccnc(C(C)(C)C(F)(F)F)c1 [Alpelisib] (partner 2 µM)
Procedure, shortened: as §1

Cell Line	relative viability (AZ628 + Lapatinib; first compound 0.08 µM)	relative viability (AZ628 + Lapatinib; first compound 0.253 µM)	relative viability (AZ628 + Lapatinib; first compound 0.8 µM)	relative viability (AZ628 + Lapatinib; first compound 2.53 µM)	relative viability (AZ628 + Lapatinib; first compound 8 µM)	relative viability (QS11 + Olaparib; first compound 0.08 µM)	relative viability (QS11 + Olaparib; first compound 0.8 µM)	relative viability (QS11 + Olaparib; first compound 2.53 µM)	relative viability (QS11 + Olaparib; first compound 8 µM)	relative viability (AZ628 + Trametinib; first compound 0.08 µM)	relative viability (AZ628 + Trametinib; first compound 0.253 µM)	relative viability (AZ628 + Trametinib; first compound 0.8 µM)	relative viability (AZ628 + Trametinib; first compound 2.53 µM)	relative viability (AZ628 + Trametinib; first compound 8 µM)	relative viability (QS11 + Alpelisib; first compound 0.08 µM)	relative viability (QS11 + Alpelisib; first compound 0.253 µM)	relative viability (QS11 + Alpelisib; first compound 2.53 µM)	relative viability (QS11 + Alpelisib; first compound 8 µM)	relative viability (QS11 + Olaparib; first compound 0.253 µM)	relative viability (QS11 + Alpelisib; first compound 0.8 µM)
HARA	0.742	0.633	0.57	0.671	0.488	0.729	0.473	0.919	0.803	0.209	0.168	0.15	0.172	0.356	0.691	0.944	0.872	0.917		
HCC-15	0.949	0.808	0.713	0.724	0.558	0.668	0.61	0.735	0.634	0.334	0.291	0.272	0.25	0.243	0.749	1.01	0.936	0.731	0.79	
HCC-44	0.982	1.06	1.01	1.02	0.844	1.05	0.597	0.989	0.987	0.909	0.837	0.566	0.804	0.519	0.837	0.755	0.728	0.476	1.09	0.659
HCC-78	0.81	0.725	0.961	0.703	0.479	0.665	0.83	0.859	0.806	0.613	0.424	0.377	0.375	0.46	0.411	0.31	0.43	0.321	1.02	0.401
HCC-366	1.1	0.918	0.968	0.87	0.717	0.41		0.452	0.212	0.277	0.242	0.204	0.233	0.156	0.55	0.361	0.296	0.244	0.467	
HCC-827	0.238	0.172	0.208	0.191	0.191	0.587	0.656	0.775	0.606	0.352	0.348	0.3	0.342	0.316	0.907	1.02	1.05	1.01	0.712	0.931
IA-LM	0.881	0.831	0.315	0.373	0.2	1	0.706	0.741	0.78						0.665	0.747	0.826	0.473	0.924	0.378
LCLC-103H						0.799		0.791	0.814	0.58	0.586	0.657	0.565	0.584	1.07	0.979	0.938	0.974	0.849	0.797
NCI-H441						0.511	0.518	0.364	0.463	0.405	0.306	0.386	0.283	0.437	0.785	0.843	0.794	0.706	0.54	0.784
NCI-H522						0.603	0.665	0.588	0.772	0.768	0.745	0.678	0.732	0.584					0.755	
NCI-H1299	1.11	1.2	1.17	1.23	0.945	0.955	0.848	0.928	0.793						1.09	1.1	0.962	1.05	1.03	1.02
NCI-H1563	1.11	0.965	1.07	0.868	0.939										0.902	0.931	0.831	0.749		1.02
NCI-H1648						0.812	0.727	0.77	1.09	0.404	0.333	0.288	0.337	0.284					0.413	
NCI-H1650	1.24	0.795	0.79	0.498	0.68	0.825	0.719	0.686	0.898	0.502	0.541	0.329	0.327	0.497					0.816	
NCI-H1703	0.763	0.393	0.389	0.246	0.286	0.411	0.597	0.501	0.551						0.322	0.409	0.331	0.446	0.363	0.32
NCI-H2342						0.352	0.494	0.479	0.441	0.839	0.878	0.907	0.752	0.978					0.395	
SW 900						0.941	0.615	0.739	0.511	0.506	0.663	0.568	0.555	0.309					1.03	
